The test system of one data set is Mus musculus. The data set is described as follows: Toxicity in sc dosed mouse assessed as foot-pad swelling over 5 hrs relative to control. In kind it is organism-based. The following applies: in vivo.
Data set [1] in a line: Activation of PKC assessed as [gamma32P] incorporation at greater than 0.5 mM after 15 mins by scintillation counting in presence of Ca2+.
Data set [2] can be described thus: Activation of PKC assessed as [gamma32P] incorporation after 15 mins by scintillation counting in presence of TPA.
Data set [3] can be described thus: Activation of PKC assessed as [gamma32P] incorporation at 2 mM after 15 mins by scintillation counting in presence of TPA.

Activity calls are given as the source filed them. The rule behind the calls is not given here.

Take `CCCCCCCC(O)CNC(=O)CCC[N+](C)(C)C.[I-]` (stereo not drawn) [NEOCOMPLANINE B]: the Activity entry in the data set with Mus musculus is “Toxic”; in data set [2], “Dose-dependent effect”. Besides, the outcome in data set [1] was Active.

For the molecule `CC/C=C\C/C=C\CC[C@@H](O)CNC(=O)CCC[N+](C)(C)C.[I-]` [COMPLANINE], the Activity entry with Mus musculus was “Toxic”; in data set [3] it was 10.9 pmol/min.

As to `CC(C)CCCCC(O)CNC(=O)CCC[N+](C)(C)C.[I-]` (stereo not drawn) [NEOCOMPLANINE A], the Activity result was “Toxic” with Mus musculus and “Dose-dependent effect” in data set [2]. Moreover, the outcome in data set [1] was Active.

The values above are taken from ChEMBL document CHEMBL1154845, “Neocomplanines A and B, a complanine family isolated from the marine fireworm” (J Nat Prod, 2010).
